Experiment: Henry solubility constant Hcp at 298.15 K (mol/(m3 Pa))
Conditions: reference: Li and Carr (1993)

Row | Henry solubility constant Hcp | SMILES
1 | 0.64 | CCCCCCO [1-hexanol]
2 | 0.84 | CCCCCO [1-pentanol]
3 | 1.4 | CCCO [1-propanol]
4 | 0.041 | CCCCCCCC(C)=O [2-nonanone]
5 | 0.00091 | CC(C)c1ccccc1 [(2-propyl)-benzene]
6 | 0.0017 | c1ccccc1 [benzene]
7 | 0.0042 | CC(C)OC(C)C [diisopropyl ether]
8 | 0.003 | CCCOCCC [dipropyl ether]
9 | 0.46 | CC#N [ethanenitrile]
10 | 1.9 | CCO [ethanol]
11 | 0.017 | CCOc1ccccc1 [ethoxybenzene]
12 | 0.0013 | CCc1ccccc1 [ethylbenzene]
13 | 0.0011 | Fc1ccccc1 [fluorobenzene]
14 | 0.0076 | Ic1ccccc1 [iodobenzene]
15 | 0.032 | COc1ccccc1 [methoxybenzene]
16 | 0.021 | CCCCCCCC=O [octanal]
17 | 0.00093 | CCCc1ccccc1 [propylbenzene]

Row | SMILES | Henry solubility constant Hcp
18 | ClC(Cl)C(Cl)Cl [1,1,2,2-tetrachloroethane] | 0.029
19 | Cc1ccccc1C [1,2-dimethylbenzene] | 0.0019
20 | Cc1cc(C)cc(C)c1 [1,3,5-trimethylbenzene] | 0.0013
21 | Cc1cccc(C)c1 [1,3-dimethylbenzene] | 0.0013
22 | Cc1ccc(C)cc1 [1,4-dimethylbenzene] | 0.0013
23 | CC(C)C#N [2-methylpropanenitrile] | 0.094
24 | Cc1cccc([N+](=O)[O-])c1 [3-nitrotoluene] | 0.28
25 | ClCc1ccccc1 [(chloromethyl)-benzene] | 0.012
26 | Brc1ccccc1 [bromobenzene] | 0.0044
27 | CCCCc1ccccc1 [butylbenzene] | 0.00071
28 | Clc1ccccc1 [chlorobenzene] | 0.0025
29 | Cc1ccccc1 [methylbenzene] | 0.0016
30 | CCCCC#N [pentanenitrile] | 0.14
31 | ClC(Cl)(Cl)Cl [tetrachloromethane] | 0.00023

From Sander's compilation of Henry's law constants (doi:10.1021/ac00058a023)
